Results: US11939324B2, “Compounds for the treatment of epilepsy, neurodegenerative disorders and other CNS disorders” (reMYND N.V., priority 2017, dated 2024)
Values after ≈ are worked out from the molar mass of the structure shown.

How the values were obtained:
M17-TAU P301L cells [1] = experiment: TAU-induced toxicity: LDH leakage of retinoic acid incubated M17-TAU P301L cells; assay type: cell-based, human; settings: for EC50: Homo sapiens, reduction of LDH activity of retinoic acid incubated M17-TAU P301L cells, read-out: EC50 (μg/ml) TAU-induced toxicity
Source text: A TAU expression plasmid was constructed by sub-cloning the cDNA of human TAU-P301L (encoding for TAU with proline 301 substituted by a leucine residue) into mammalian expression vector pcDNA3.1 resulting in plasmid pcDNA3.1-TAU P301L. Plasmids pcDNA3.1 and pcDNA3.1-TAU P301L were transfected to human neuroblastoma cells ([…]; ATCC No. CRL-2267) and independent clonal lines with the plasmids stably integrated into the genome were selected. […] Expression of the TAU P301L genes in the cell lines was confirmed by Western analysis.
In degenerated or dead cells lactate dehydrogenase (LDH) leaks out of the cells into the extracellular environment due to a loss of plasma-membrane integrity. This principle was used to determine cytotoxicity by quantifying the level of leaked LDH into the growth medium relative to the sum of total LDH activity from living cells and dead cells.
The detailed method for determining cytotoxicity was as follows: From appropriate precultures of M17-3.1 and M17-TAU(P301L) cells were seeded at 2500 cells/cm2 in Optimem Reduced Serum without phenol red (Gibco, Cat. 31985-047) supplemented with 1% fetal calf serum, 1 mM sodium pyruvate, 1× non-essential amino acids, 500 μg/ml G418 0.5× antibiotic/antimycotic. After 3 hours of incubation at 37° C./5% CO2 1 volume of Optimem Reduced Serum (same as described above; except without fetal calf serum) supplemented with 2.5 μM all-trans retinoic acid (ATRA) was added. The cells were further incubated for 7 days. Subsequently, LDH activity was determined using Promega Cytotox 96 Non-Radioactive cytotoxicity assay, (Cat. G1780) according the supplier's instructions.
The M17-TAU P301L cell line made it possible to assess the ability of novel compounds to counteract TAU cytotoxicity. […] These measurements were used to calculate EC50 values.
Exemplary compounds of the present invention are shown in Table 1, with their chemical structure and their EC50 value (expressed in μg/ml) as determined from example 12 in the TAU-induced toxicity experiment.

M17-TAU P301L cells [2] = experiment: Cytosolic calcium (Fura-2) in M17-TAU P301L cell model of calcium dyshomeostasis; assay type: cell-based; settings: Homo sapiens, Fura-2 340/380 nm ratio, read-out: EC50 value of lowering cytosolic Ca^2+
Experimental: Cystosic calcium was measured by loading the cells with a medium containing Fura-2 AM (Sigma-Aldrich), a cell permeable fluorescent probe for Ca^2+. Fura-2-AM was dissolved in DMSO plus 20% Pluronic Acid (F-127) (Invitrogen) in a 1:1 ratio and diluted in medium to a final concentration of 0.5 μM. To this loading medium probenecid (Sigma-Aldrich) was added to a final concentration of 2.5 mM. Then, culture medium was replaced by loading medium and after incubation for 1 hour at 37° C. cells were washed twice and replaced with HBSS (Gibco) supplemented with 0.2% FBS and 0.02M HEPES. Next, changes in cytosolic calcium were measured using a FlexStation 3 microplate reader (Molecular Devices) and quantified ratiometric, by calculating changes in the amount of cytosolic Ca^2+ bound Fura-2 (fluorescence intensity at 340 nm) relative to the amount of Ca^2+ unbound Fura-2 (fluorescence intensity at 380 nm). Data was processed in SoftMax Pro 5.4.6 software (Molecular Devices).
In addition compounds were tested to lower the elevated cytosolic calcium levels. In the presence of the compounds these cytosolic calcium levels were decreased.
Compounds were tested to lower the elevated cytosolic Ca^2+ levels in the cell model of calcium dyshomeostasis (FIG. 1B) as described in example 10.
Exemplary compounds of the present invention are shown in Table 2, with their chemical structure and their EC50 value of lowering cytosolic Ca^2+ (expressed in μg/ml).

[3] = test system: primary rat hippocampal neurons; experiment: Ex-vivo inhibition of oligomeric amyloid beta (ADDL) toxicity in primary neurons; assay type: cell-based; settings: 100 ng/mL, 1000 nM ADDL, 24 h, FIG. 4
Experimental: An exemplary compound of this invention was tested for its ability to inhibit toxicity elicited by oligomeric amyloid beta (Aβo). Neurons from rat embryos were harvested and cultured using standard methods (such as used in Schlager et al., 2014. Cell reports, 8(5), pp. 1248-56.). Differentiated neurons were challenged with Apo and viability was quantified.
At day in-vitro 19 days after isolation primary hippocampal neurons were transfected with Marcks-GFP in order to visualize the neurons with fluorescence microscopy.
ADDL (Abeta-derived diffusible ligands) preparation (representing Aβo) was done according to Klein (Klein, 2002. Neurochemistry international, 41(5), pp. 345-52.). Abeta 1-42 was purchased from AnaSpec Inc. and dissolved in HFIP to homogenize the peptide. HFIP was then evaporated in a speedvac and Abeta film was dried at −20° C. overnight over desiccant. Abeta film was then resolubilised in 100% DMSO and further diluted (1/25) in Ham's F12 medium. […]
The solution was centrifuged at 14.000×g for 10 min at 4° C. and supernatants were transferred to fresh tubes and protein concentration determined by NanoDrop®.
At day in-vitro 21 primary rat hippocampal neurons were treated with equal volume of Blank/ADDL solution amounting to 0 and 1000 nM ADDL. […] Viability was assessed using the Live-Dead assay from Thermo Fisher Catalog number: L3224. […]

VGCC = experiment: Ex-vivo inhibition of VGCC activity: KCl-induced Ca2+ influx in primary neurons (Fura2); assay type: cell-based; settings: 1.5 μm compound, 45 mM KCl, primary neurons from mouse embryos, FIG. 5, p<0.0001
Experimental: Compound 6 was tested for its ability to inhibit VGCC activity in primary neurons. Neurons from mouse embryos were harvested and cultured using standard methods (such as used in Schlager et al., 2014. Cell reports, 8(5), pp. 1248-56). To stimulate VGCC activity, neurons were depolarized using 45 mM KCl and incubated with vehicle or compound at a concentration of 1.5 μm. Calcium influx was measured using fluorescent cytosolic Ca^2+ detection reagent Fura2.
Changes in cytosolic Ca^2+ concentrations were measured after loading the cells with Fura-2 AM (Sigma-Aldrich), a cell permeable fluorescent probe for Ca^2+. Briefly, Fura-2-AM was dissolved in DMSO plus 20% Pluronic Acid (F-127) (Invitrogen) in a 1:1 ratio and diluted in medium to a final concentration of 0.5 μM. […] Next, changes in cytosolic calcium were measured using a FlexStation 3 microplate reader (Molecular Devices) and quantified ratiometric, by calculating changes in the amount of cytosolic Ca^2+ bound Fura-2 (fluorescence intensity at 340 nm) relative to the amount of Ca^2+ unbound Fura-2 (fluorescence intensity at 380 nm). […]
Compounds were tested at […] for their ability to inhibit Ca^2+ influx in primary neurons (FIG. 5) as described in Example 14. […] The percentage (%) inhibition of Ca^2+ influx relative to vehicle treated neurons was calculated.

TAU phosphorylation = experiment: In vivo inhibition of TAU phosphorylation in brain of APP*PS1 mice (Western analysis); settings: 20 mg/kg subcutaneously daily for 2 weeks, 5 month old APP*PS1 mice, versus vehicle, FIG. 6
Source text: FIG. 6 represents graphs plotting quantifications of pathologically phosphorylated TAU species determined by Western blots of brain extracts from transgenic APP mice treated with vehicle or with exemplary Compound 6. The graphs depict the mean normalized TAU signals±SEM. ** indicate p<0.01 relative to vehicle treated animals. The TAU signals were obtained by using antibodies directed against: • (A) AT8 p-TAU, indicates the antibody recognising p-TAU phosphorylated on serine 202 and threonine 205 • (B) AD2 p-TAU, indicates the antibody recognising p-TAU phosphorylated on serines 396 and 404 • (C) phosphorylated TAU on T231 • (D) phosphorylated TAU on S262.
Transgenic human 5 month old APP*PS1 mice (The Journal of Neuroscience, Sep. 1, 2000, 20(17):6452-6458) were treated daily subcutaneously with 20 mg/kg Compound 6 for 2 weeks.
At the end of the treatment period, mice were sacrificed and the corresponding brains were used for biochemical analysis.

[4] = test system: Transgenic human APP mice; experiment: Morris Water Maze cognition test in transgenic APP mice; assay type: in vivo; settings: 20 mg/kg subcutaneously daily for 8 weeks, versus vehicle
Experimental: P-value refers to the treatment of transgenic APP mice with exemplary Compound 6 versus vehicle.
Transgenic human of 4 months of age APP mice (THE JOURNAL OF BIOLOGICAL […] Vol. 274, No. 10, Issue of March 5, pp. 6483-6492, 1999) were treated subcutaneously, daily for 8 weeks with Compound 6 at 20 mg/kg. Cognition was assessed using the Morris Water Maze test. […] After the learning phase a probe test was conducted in which the platform was removed from the water bath to evaluate the spatial memory of the location of the platform.
Both indices indicate that compound treated mice have improved cognitive performance almost identical to wild type controls compared to vehicle treated mice.

CA1 pyramidal neurons = experiment: Neuronal firing rate in brain slices from tgAPP mice (patch clamp, CA1); assay type: cell-based, mouse; settings: 2 μM, 1 hr perfusion, higher stimuli, FIG. 8
Experimental: Brain slices from wild type and tgAPP mice were incubated with DMSO or Compound 6. Neurons were stimulated with increasing currents and the frequency of action potentials (firing rate) was measured.
In tgAPP mice the frequency of action potentials at higher stimuli was higher.
Acute sagittal brain slices from WT or hAPP mice were prepared by decapitation of the mice after isoflurane anaesthesia. Brains were removed quickly and immersed during 3-4 min in ice-cold freshly prepared cutting artificial cerebrospinal fluid (cutting aCSF) containing (in mM) 214 sucrose, 2.5 KCl, 2 CaCl2, 2 MgSO4, 1.25 NaH2PO2, 26 NaHCO3 and 10 glucose and oxygenated with 95% O2/5% CO2. Sagittal 350 μm slices were generated using a vibratome (VT 1000S; Leica Microsystems) and were incubated in standard carboxygenated aCSF (in mM: 125 NaCl, 2.5 KCl, 2 CaCl2, 2 MgSO4, 1.25 NaH2PO2, 26 NaHCO3 and 10 glucose, osmolarity 305 mOsm) at 34° C. during 20 min. The incubation continued at room temperature (RT) for another hour before each slice was transferred to a submerged recording chamber and perfused continuously with carboxygenated aCSF. […]
Dendritic firing rate of CA1 cells was recorded in response to hyperpolarizing and depolarizing steps (−0.4 to +0.45 nA, steps of 0.05 nA) after a 1 hr perfusion with vehicle or compound at 2 μM. […]

mouse brain slices = experiment: Afterhyperpolarization of single action potentials in mouse brain slices; assay type: cell-based; settings: versus vehicle, FIG. 9, p<0.05
Experimental: FIG. 9 represents a graph plotting the afterhyperpolarization (AHP) amplitude of single action potentials by somatic current clamp recordings using mouse brain slices incubated with vehicle or Compound 6. * indicates p<0.05.
Somatic or dendritic (>200 μm from the soma) current-clamp recordings were performed at RT (24 to 28° C.) and slices were continuously perfused with carboxygenated standard aCSF, supplemented with control or test article REM0043039 at 2 μM. For whole-cell recordings, patch pipettes were filled with a solution containing (in mM) 140 K-gluconate, 5 NaCl, 2 MgCl2, 10 HEPES, 0.5 EGTA, 2 MgATP, 0.4 NaGTP, osmolarity 305, pH adjusted to 7.25 with KOH. The soma or dendrite of large CA1 pyramidal neurons were identified and patch-clamped after visual approach of the recording pipette using a combination of infrared light and differential interference contrast (DIC) optics. […] Recordings were terminated when the series resistances exceeded 40 MO. Signals were digitized and low-pass filtered at 10 kHz. The signal was amplified with an Axopatch 200B amplifier, digitized by a Digidata 155 interface and sampled with Clampex 10 (Molecular Devices, CA). […]
Action potentials (AP) after electrical stimulation of mouse brain slices were analysed (FIG. 9). […]

EC50 (M17-TAU P301L cells [2]) | SMILES | EC50 (M17-TAU P301L cells [1]) | further results
1 ng/mL | O=C(NCCc1c[nH]c2ccc(F)cc12)c1cc(Cc2ccc(F)cc2F)on1 [Compound 1] | 0.002 µg/mL (≈ 5.01 nM) | 
1.4 ng/mL | O=C(NCCc1c[nH]c2ccc(F)cc12)c1cc(Cc2ccc(F)c(F)c2)on1 [Compound 2] | 0.002 µg/mL (≈ 5.01 nM) | 
2.4 ng/mL | O=C(NCCc1c[nH]c2ccc(F)cc12)c1cc(Cc2cc(F)cc(F)c2)on1 [Compound 3] | 0.0021 µg/mL (≈ 5.26 nM) | 
3.5 ng/mL | O=C(NCCc1c[nH]c2ccc(F)cc12)c1cc(Cc2ccc(F)cc2)on1 [Compound 4] | 0.0022 µg/mL (≈ 5.77 nM) | 
7.1 ng/mL | O=C(NCCc1c[nH]c2ccc(F)cc12)c1cc(Cc2cccc(F)c2F)on1 [Compound 5] | 0.0028 µg/mL (≈ 7.01 nM) | 
2.4 ng/mL | O=C(NCCc1c[nH]c2ccc(F)cc12)c1cc(Cc2cc(F)ccc2F)on1 [Compound 6] | 0.0034 µg/mL (≈ 8.51 nM) | neuronal viability after Aβo challenge [3]: strongly rescued; Ca^2+ influx upon KCl depolarization (VGCC): significantly reduced; TAU phosphorylation in brain extracts (TAU phosphorylation): more effectively reduced TAU phosphorylation; search path during training phase of Morris Water Maze ([4]; FIG. 7A): reduced search path; annulus crossing index score in probe test ([4]; FIG. 7B): higher annulus crossing index score; frequency of action potentials (firing rate) (CA1 pyramidal neurons): significantly lowered the frequency towards wild type level; afterhyperpolarization (AHP) amplitude of action potentials (mouse brain slices): increased
4.7 ng/mL | O=C(NCCc1c[nH]c2ccc(F)cc12)c1cc(Cc2ccccc2F)on1 [Compound 7] | 0.0043 µg/mL (≈ 11.3 nM) | 
 | COC(=O)C1=C(C)NC(C)=C(C(=O)OC(C)C)C1c1cccc2nonc12 (stereo not shown) [isradepine, reference compound] |  | toxicity (LDH leaked into the medium) of RA-incubated cells (M17-TAU P301L cells [1]; FIG. 2, M17-TAU P301L cells with RA): toxicity is reduced
